Reference: ChEMBL document CHEMBL1201862, “PubChem BioAssay data set” (2004)
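Compound exposure: 48 hours, 5 concentrations, 96-well plates. GI50 = concentration required for 50% inhibition of growth.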 The source made the active and inactive calls. Cut-off read from the data, not from the text of the source: active = GI50 up to about 1.1 µM and inactive = higher.

Key:
Assay in all cases: NCI tumour cell line growth inhibition, 48 h
SK-MEL-28 = system: SK-MEL-28
SF-295 = system: SF-295
SW-620 = system: SW-620
OVCAR-8 = system: OVCAR-8
SN12C = system: SN12C
HOP-92 = system: HOP-92
786-0 = system: 786-0
COLO 205 = system: COLO 205
M14 = system: M14
MDA-MB-435 = system: MDA-MB-435
SK-MEL-5 = system: SK-MEL-5
MDA-N = system: MDA-N
ACHN = system: ACHN
SF-268 = system: SF-268
PC-3 = system: PC-3
MCF7 = system: MCF7
LOX IMVI = system: LOX IMVI
HOP-62 = system: HOP-62
A549 = system: A549
DU-145 = system: DU-145
CCRF-CEM = system: CCRF-CEM
HCT-116 = system: HCT-116
SK-MEL-2 = system: SK-MEL-2
UACC-62 = system: UACC-62
HT-29 = system: HT-29
SR = system: SR
SNB-75 = system: SNB-75
K562 = system: K562
HCC 2998 = system: HCC 2998
NCI-H522 = system: NCI-H522
UO-31 = system: UO-31
EKVX = system: EKVX
TK-10 = system: TK-10
OVCAR-3 = system: OVCAR-3
RPMI-8226 = system: RPMI-8226
NCI-H23 = system: NCI-H23
T47D = system: T47D
IGROV-1 = system: IGROV-1
Hs-578T = system: Hs-578T
SNB-19 = system: SNB-19
OVCAR-5 = system: OVCAR-5
CAKI-1 = system: CAKI-1
KM12 = system: KM12
HCT-15 = system: HCT-15
NCI/ADR-RES = system: NCI/ADR-RES
SF-539 = system: SF-539
UACC-257 = system: UACC-257
NCI-H460 = system: NCI-H460
U-251 = system: U-251
SK-OV-3 = system: SK-OV-3
MDA-MB-231 = system: MDA-MB-231
HL-60 = system: HL-60
MOLT-4 = system: MOLT-4
Malme-3M = system: Malme-3M
OVCAR-4 = system: OVCAR-4
A498 = system: A498
NCI-H226 = system: NCI-H226
RXF 393 = system: RXF 393

CC1C(c2ccc(F)cc2)c2cc3c(cc2OC1N1CCCC1)OCO3 (stereo unspecified)
GI50 (SK-MEL-28): 90.4 µM (inactive)
GI50 (SF-295): 27.6 µM (inactive)
GI50 (SW-620): 47 µM (inactive)
GI50 (OVCAR-8): 55.1 µM (inactive)
GI50 (SN12C): 80.4 µM (inactive)
GI50 (HOP-92): 15.5 µM (inactive)
GI50 (786-0): 45.1 µM (inactive)
GI50 (COLO 205): 49.5 µM (inactive)
GI50 (M14): 54.2 µM (inactive)
GI50 (MDA-MB-435): 44.6 µM (inactive)
GI50 (SK-MEL-5): 37.7 µM (inactive)
GI50 (MDA-N): 66.4 µM (inactive)
GI50 (ACHN): 27.7 µM (inactive)
GI50 (SF-268): 36.8 µM (inactive)
GI50 (PC-3): 44.2 µM (inactive)
GI50 (MCF7): 45.4 µM (inactive)
GI50 (LOX IMVI): 83.8 µM (inactive)
GI50 (HOP-62): 46.3 µM (inactive)
GI50 (A549): 34.3 µM (inactive)
GI50 (DU-145): 61.9 µM (inactive)
GI50 (CCRF-CEM): 30.8 µM (inactive)
GI50 (HCT-116): 30.6 µM (inactive)
GI50 (SK-MEL-2): 89.3 µM (inactive)
GI50 (UACC-62): 55 µM (inactive)
GI50 (HT-29): 47.8 µM (inactive)
GI50 (SR): 35.2 µM (inactive)
GI50 (SNB-75): 22.3 µM (inactive)
GI50 (K562): 42 µM (inactive)
GI50 (HCC 2998): 38.6 µM (inactive)
GI50 (NCI-H522): 29 µM (inactive)
GI50 (UO-31): 23.2 µM (inactive)
GI50 (EKVX): 34.1 µM (inactive)
GI50 (TK-10): 37.2 µM (inactive)
GI50 (OVCAR-3): 43.7 µM (inactive)
GI50 (RPMI-8226): > 10 µM (inactive)
GI50 (NCI-H23): 64.9 µM (inactive)
GI50 (T47D): 35.7 µM (inactive)
GI50 (IGROV-1): 42.2 µM (inactive)
GI50 (Hs-578T): 18 µM (inactive)
GI50 (SNB-19): 29.1 µM (inactive)
GI50 (OVCAR-5): 47.5 µM (inactive)
GI50 (CAKI-1): 16.7 µM (inactive)
GI50 (KM12): 42.5 µM (inactive)
GI50 (HCT-15): 34.4 µM
GI50 (NCI/ADR-RES): 43.6 µM (inactive)
GI50 (SF-539): 30.4 µM (inactive)
GI50 (UACC-257): 55.1 µM (inactive)

CC1CN=C(N(C(=O)Nc2ccc(Cl)cc2)c2cccc(Cl)c2)S1 (stereo unspecified)
GI50 (SK-MEL-28): 28.6 µM (inactive)
GI50 (SF-295): 20.1 µM (inactive)
GI50 (NCI-H460): 27.1 µM (inactive)
GI50 (U-251): 70.3 µM (inactive)
GI50 (SW-620): 41.9 µM (inactive)
GI50 (OVCAR-8): 36.9 µM (inactive)
GI50 (SK-OV-3): > 100 µM (inactive)
GI50 (SN12C): 15.7 µM (inactive)
GI50 (MDA-MB-231): 39.3 µM (inactive)
GI50 (HOP-92): 26.3 µM (inactive)
GI50 (786-0): 23.9 µM (inactive)
GI50 (COLO 205): 18.5 µM (inactive)
GI50 (M14): 7.24 µM (inactive)
GI50 (HL-60): 48.2 µM (inactive)
GI50 (SK-MEL-5): 17.5 µM (inactive)
GI50 (MDA-N): 24.9 µM (inactive)
GI50 (ACHN): 10.8 µM (inactive)
GI50 (SF-268): 54.2 µM (inactive)
GI50 (PC-3): 25.2 µM (inactive)
GI50 (MCF7): 34.7 µM (inactive)
GI50 (LOX IMVI): 21.6 µM (inactive)
GI50 (HOP-62): > 100 µM (inactive)
GI50 (A549): 25.6 µM (inactive)
GI50 (DU-145): 46.8 µM (inactive)
GI50 (CCRF-CEM): 17.8 µM (inactive)
GI50 (HCT-116): 20.4 µM (inactive)
GI50 (SK-MEL-2): 16.6 µM (inactive)
GI50 (MOLT-4): > 10 µM (inactive)
GI50 (HT-29): 23 µM (inactive)
GI50 (SR): 29.3 µM (inactive)
GI50 (SNB-75): 65 µM (inactive)
GI50 (K562): 7.06 µM (inactive)
GI50 (HCC 2998): 20.9 µM (inactive)
GI50 (UO-31): 37.4 µM (inactive)
GI50 (EKVX): 31.2 µM (inactive)
GI50 (TK-10): 15 µM (inactive)
GI50 (OVCAR-3): 40.6 µM (inactive)
GI50 (RPMI-8226): > 10 µM (inactive)
GI50 (NCI-H23): 35.1 µM (inactive)
GI50 (T47D): 13 µM (inactive)
GI50 (IGROV-1): 24.4 µM (inactive)
GI50 (Hs-578T): 50.1 µM (inactive)
GI50 (Malme-3M): 59 µM (inactive)
GI50 (SNB-19): > 100 µM (inactive)
GI50 (OVCAR-4): 46.3 µM (inactive)
GI50 (OVCAR-5): > 100 µM (inactive)
GI50 (CAKI-1): 12.9 µM (inactive)
GI50 (KM12): 24.9 µM (inactive)
GI50 (A498): 16.9 µM (inactive)
GI50 (HCT-15): 11.3 µM
GI50 (NCI/ADR-RES): 19.2 µM (inactive)
GI50 (SF-539): 33.7 µM (inactive)
GI50 (UACC-257): 28.2 µM (inactive)

C/C(=C\C(=N\NC(=N)N)c1ccccc1)c1ccccc1
GI50 (SK-MEL-28): 2.58 µM (inactive)
GI50 (SF-295): 0.409 µM (active)
GI50 (NCI-H460): 2.25 µM (inactive)
GI50 (U-251): 0.652 µM (active)
GI50 (SW-620): 0.318 µM (active)
GI50 (OVCAR-8): 1.24 µM (inactive)
GI50 (SK-OV-3): 4.3 µM (inactive)
GI50 (SN12C): 0.454 µM (active)
GI50 (HOP-92): 0.716 µM (active)
GI50 (786-0): 0.843 µM (active)
GI50 (COLO 205): 0.0348 µM (active)
GI50 (M14): 1.17 µM (inactive)
GI50 (MDA-MB-435): 1.24 µM (inactive)
GI50 (SK-MEL-5): 0.281 µM (active)
GI50 (MDA-N): 0.973 µM (active)
GI50 (ACHN): 0.2 µM (active)
GI50 (SF-268): 0.459 µM (active)
GI50 (PC-3): 0.313 µM (active)
GI50 (MCF7): 0.321 µM (active)
GI50 (NCI-H226): 1.15 µM (inactive)
GI50 (LOX IMVI): 1.23 µM (inactive)
GI50 (HOP-62): 0.0822 µM (active)
GI50 (A549): 0.577 µM (active)
GI50 (DU-145): 0.406 µM (active)
GI50 (CCRF-CEM): 0.208 µM (active)
GI50 (HCT-116): 0.273 µM (active)
GI50 (MOLT-4): 0.261 µM (active)
GI50 (UACC-62): 1.15 µM (inactive)
GI50 (HT-29): 0.354 µM (active)
GI50 (SR): 2.18 µM (inactive)
GI50 (SNB-75): 4.28 µM (inactive)
GI50 (K562): 1.53 µM (inactive)
GI50 (HCC 2998): 0.26 µM (active)
GI50 (NCI-H522): 0.452 µM (active)
GI50 (TK-10): 1.17 µM (inactive)
GI50 (OVCAR-3): 0.409 µM (active)
GI50 (RPMI-8226): 1.01 µM (active)
GI50 (NCI-H23): 0.354 µM (active)
GI50 (T47D): 0.12 µM (active)
GI50 (IGROV-1): 0.432 µM (active)
GI50 (Hs-578T): 1.32 µM (inactive)
GI50 (Malme-3M): 1.16 µM (inactive)
GI50 (SNB-19): 1.6 µM (inactive)
GI50 (OVCAR-4): 0.321 µM (active)
GI50 (OVCAR-5): 0.64 µM (active)
GI50 (CAKI-1): 0.149 µM (active)
GI50 (KM12): 1.17 µM (inactive)
GI50 (RXF 393): 1.41 µM (inactive)
GI50 (HCT-15): 1.99 µM
GI50 (NCI/ADR-RES): 2.78 µM (inactive)
GI50 (SF-539): 0.432 µM (active)
